Reference: patent US8623416B2 (priority 2009, dated 2014)
Entries after “also recorded” stand apart in the source; their conditions may differ. Where two headings read alike, the source gives them in different places.

How the values were obtained:
[1] = assay type: physicochemical; conditions: 0.1 ml squalamine lactate 10 mg/ml in water + 1 volume 0.1M solution of the anion, turbid = insoluble salt form
[2] = tested on: Yellow Fever; set-up: species or system Syrian hamsters; conditions: hamster, in vivo
[3] = for Toxicity: hamster, in vivo, sc
[4] = 10 mg of squalamine as a phosphate suspension
[5] = tested on: human Hepatitis B virus; assay: Hepatitis B virus replication in primary human hepatocytes, PCR (Example 19); assay type: cell-based
Protocol: The purpose of this experiment was to determine the antiviral activity of squalamine against human Hepatitis B virus. The experiment was conducted in vitro, using primary human hepatocytes.
Experimental design: Primary human hepatocytes were established in a 96 well microtiter plate. Squalamine was then added at concentrations of 2, 6 or 20 μg/ml followed by an inoculum of Hep B virus, and then in culture for 16 hours, after which fresh medium was introduced, and the cells maintained in culture for 14 days. In a second experiment, squalamine at 6 or 20 μg/ml was added to the cells at 24 hours post inoculation for a 16 hour exposure, followed by removal of medium, replacement with fresh medium, and continued culture for 14 days. Viral growth was measured by PCR using viral specific primers and normalized to the total RNA extracted from each corresponding well.

[6] = tested on: Dengue virus
[7] = tested on: human Hepatitis Delta virus; assay: Hepatitis Delta virus replication in primary human hepatocytes, PCR (Example 20)
[8] = tested on: Eastern Equine Encephalitis Virus; set-up: species or system hamsters (Syrian golden); conditions: hamster, in vivo
[9] = tested on: murine cytomegalovirus (MCMV); assay type: in vivo, Balb/c mice; conditions: for viral titers in lungs and salivary glands vs other groups / viral titers in spleen and liver vs control: day 7
[10] = tested on: human immunodeficiency virus (HIV)
[11] = in vivo; cited from earlier work
[12] = tested on: Yellow Fever; set-up: species or system Syrian hamsters; conditions: hamster, in vivo; remark: listed apart in the source
[13] = tested on: Eastern Equine Encephalitis Virus; set-up: species or system mice; conditions: mouse, in vivo
[14] = in vivo; cited from earlier work; remark: listed apart in the source
[15] = 20 μg/ml, added during initial stages of infection
[16] = squalamine phosphate 10 mg/kg/day s.c.
[17] = mouse, in vivo, ip, 10 mg/kg/day

O=P([O-])([O-])OP(=O)([O-])OP(=O)([O-])[O-].[Na+].[Na+].[Na+].[Na+].[Na+] [Sodium triphosphate]
Turbidity ([1]; triphosphate): Yes and yes

NC(=O)c1ncn([C@@H]2O[C@H](CO)[C@@H](O)[C@H]2O)n1 [ribavirin, reference compound]
survival vs placebo [2]: fared no better than the placebo-treated cohort

squalamine phosphate
survival [2]: 70% | persistence of local signs (lactate: signs and symptoms; phosphate: slight swelling) (0.1 ml of 10 mg/ml s.c.): about 1 week | local signs at injection site (human, in vivo, sc): free of visible signs of irritation, save for a slight swelling | pain on injection (human, in vivo, sc): no pain other than that produced by the needle prick | Toxicity ([3]; 15 mg/kg/day): none | Toxicity ([3]; 30 mg/kg/day): none | Toxicity ([3]; 60 mg/kg/day): none | lesions at the sites of administration ([3]; s.c. dosing at 10 mg/ml, recorded 7 days post injection): no lesions | water added until fully dissolved [4]: about 250 ml

3 beta-N-1-(N-[3-(4-aminobutyl)]-1,3-diaminopropane)-7 alpha,24 zeta-dihydroxy-5 alpha-cholestane 24-sulfate [squalamine]
inhibition of viral production ([5]; 2 μg/ml, added only at the outset of infection): 14% | inhibition of viral production ([5]; 6 μg/ml, added at 24 hours): 30% | inhibition of viral production ([5]; 6 μg/ml, added at the onset of infection): 54% | inhibition of viral production ([5]; 20 μg/ml, added at 24 hours): 64% | inhibition of viral production [5, 15]: 83% | cell viability [6]: not diminished | inhibition of viral infection [6]: 100% | inhibition of viral production [7, 15]: 90% | cytotoxicity in vitro ([7]; 60 μg/ml, primary human hepatocytes): cytotoxic | effect on survival [8]: extended survival; also recorded: increase survival | effect on viremia [8]: significantly reduce viremia | hamsters still alive at the end of treatment [8]: 6/10 | plasma concentrations of virus lower than vehicle [8]: about 100 fold | viral titers in lung compared with control ([9]; 10 mg/kg/day i.p.): trend toward reduction | viral titers in lungs and salivary glands vs other groups ([9]; 10 mg/kg/day i.p.): no significant differences | viral titers in spleen and liver vs control ([9]; 10 mg/kg/day i.p.): significantly lower than in the control cohort | viral titers in lungs and salivary glands vs other groups [9, 16]: no significant differences | viral titers in spleen and liver vs control [9, 16]: significantly lower than in the control cohort | virus in the liver and spleen ([9]; mouse, in vivo): significantly reduced; also recorded: undetectable levels | effect on viral growth in the salivary gland [9, 17]: little effect | reduction in viral growth in liver, spleen, and lung [9, 17]: greater than 10 fold | virus in the liver and spleen [9, 17]: undetectable levels | Toxicity [10]: no evidence of toxicity | inhibition of HIV infection [10]: about 50%; also recorded: about 20% | survival [2]: 70% | tolerability [11]: well tolerated | animals cured [12]: 40% | outcome of treatment of established infection [12]: cure a lethal infection | survival through day 21 [12]: 60% | Toxicity ([3]; 15 mg/kg/day): Mild/moderate by day 1 | Toxicity ([3]; 30 mg/kg/day): moderate | Toxicity ([3]; 60 mg/kg/day): Severe, open wounds | efficacy in mice [13]: ineffective | tolerability [14]: well tolerated

CC(=O)C(=O)[O-].[Na+] [Sodium pyruvate]
Turbidity [1]: No and no

O=C[C@H](O)[C@@H](O)[C@H](O)[C@H](O)COP(=O)(O)O [Glucose 6-phosphate]
Turbidity [1]: No and no
